{"source": "patent US20250099580A1", "about": "“TREATMENT OF GASTRIC CANCER AND/OR GASTROESOPHAGEAL JUNCTION CANCER” (AstraZeneca AB, priority 2023, published 2025)", "key": {"[1]": {"target": "PD-L1 (Homo sapiens, UniProt Q9NZQ7)", "sequence (Q9NZQ7 19-290)": "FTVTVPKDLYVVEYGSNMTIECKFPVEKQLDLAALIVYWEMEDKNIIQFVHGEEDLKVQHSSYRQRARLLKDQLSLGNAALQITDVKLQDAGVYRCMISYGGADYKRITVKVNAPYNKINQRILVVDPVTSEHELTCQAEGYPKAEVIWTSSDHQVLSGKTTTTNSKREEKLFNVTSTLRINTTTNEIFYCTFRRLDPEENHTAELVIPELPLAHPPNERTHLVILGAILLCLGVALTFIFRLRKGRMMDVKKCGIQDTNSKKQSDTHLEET", "conditions": "in vitro; cited from earlier work"}, "[2]": {"test_system": "tumor growth in a xenograft model", "conditions": "T-cell dependent mechanism; cited from earlier work"}, "[3]": {"test_system": "resectable gastric and gastroesophageal junction cancer (GC/GEJC)", "assay": "Phase III study, interim analysis: surgery rate and R0 resection rate", "format": "in vivo, human", "protocol": "A randomized, double-blind, placebo-controlled, multicenter, global Phase III study is conducted to assess the efficacy and safety of neoadjuvant-adjuvant durvalumab in combination with FLOT chemotherapy followed by adjuvant durvalumab monotherapy in patients with resectable GC/GEJC (i.e., radical-surgery eligible; >T2 N0-3 M0 or T0-4 N1-3 M0, per AJCC 8th edition). Patients were randomized in a 1:1 ratio to each of the following treatment arms (see FIGS. 1A and 1B): • Treatment Arm A: durvalumab 1500 mg on Day 1+FLOT on Days 1 and 15 of Q4W, both agents being adminstered for 4 cycles (2 cycles neoadjuvant+2 cycles adjuvant) followed by durvalumab 1500 mg on Day 1 Q4W for 10 additional cycles. • Treatment Arm B: placebo on Day 1+FLOT on Days 1 and 15 of Q4W, both agents being adminstered for 4 cycles (2 cycles neoadjuvant+2 cycles adjuvant) followed by placebo on Day 1 Q4W for 10 additional cycles. Surgical eligibility was assessed after neoadjuvant treatment and within 28 days prior to surgery. Surgery performed was gastrectomy or gastroesophagectomy with at least D1 lymphadenectomy (D2 lymphadenectomy recommended), as determined by the attending surgeon based on the intraoperative findings. Surgery was no earlier than 4 weeks but within 8 weeks after the last dose of neoadjuvant therapy. Patients must have recovered from all acute, reversible toxic effects from FLOT chemotherapy (excluding alopecia) and durvalumab (or placebo) that could potentially adversely impact the surgical procedure. Radical gastrectomy or gastroesophagectomy was performed for patients who met the surgery eligibility criteria by a board certified surgeon no earlier than 28 days (4 weeks) but within 56 days (8 weeks) after the last dose of neoadjuvant therapy. (Surgery >8 weeks after the last dose of neoadjuvant therapy may be permitted in consultation with the Sponsor). The recommendations of ESMO and NCCN for the resectability of GC/GEJC was followed. The surgery was be performed by a board certified gastric surgeon, who should perform gastric surgery as a prominent part of his/her practice. Surgery rate is analyzed using the same methodology as described for the pCR rate. R0 resection (margin-negative resection) rate is analyzed using the same methodology as described for the pCR rate. Surgery status is determined by a patient receiving gastrectomy or gastroesophagectomy (yes/no). Surgery rate is defined as the proportion of patients who undergo gastrectomy or gastroesophagectomy. R0 resection is determined by pathology review. R0 resection rate is defined as the proportion of patients who have a confirmed complete resection (i.e., received margin-negative surgery [R]) as assessed by pathology review. Interim analysis was conducted after all randomised patients underwent or were precluded from surgery. Superiority of pCR rate (α=0.1% [2-sided]) by central review was assessed. Surgical and safety outcomes were also assessed."}, "[4]": {"assay": "Phase III study, interim analysis: adverse events (safety analysis set)", "format": "in vivo", "protocol": "(§1) A randomized, double-blind, placebo-controlled, multicenter, global Phase III study is conducted to assess the efficacy and safety of neoadjuvant-adjuvant durvalumab in combination with FLOT chemotherapy followed by adjuvant durvalumab monotherapy in patients with resectable GC/GEJC (i.e., radical-surgery eligible; >T2 N0-3 M0 or T0-4 N1-3 M0, per AJCC 8th edition). Patients were randomized in a 1:1 ratio to each of the following treatment arms (see FIGS. 1A and 1B): • Treatment Arm A: durvalumab 1500 mg on Day 1+FLOT on Days 1 and 15 of Q4W, both agents being adminstered for 4 cycles (2 cycles neoadjuvant+2 cycles adjuvant) followed by durvalumab 1500 mg on Day 1 Q4W for 10 additional cycles. • Treatment Arm B: placebo on Day 1+FLOT on Days 1 and 15 of Q4W, both agents being adminstered for 4 cycles (2 cycles neoadjuvant+2 cycles adjuvant) followed by placebo on Day 1 Q4W for 10 additional cycles.\nAn adverse event (AE) can therefore be any unfavorable and unintended sign (e.g., an abnormal laboratory finding), symptom (for example nausea, chest pain), or disease temporally associated with the use of a medicinal product, whether or not considered related to the medicinal product. The term AE is used to include both serious and non-serious AEs and can include a deterioration of a pre-existing medical occurrence. An AE may occur at any time, including run-in or washout periods, even if no study intervention has been administered.\nDefinitions of serious adverse event: A serious adverse event is an AE occurring during any study phase (i.e., run-in, treatment, washout, follow-up), that fulfils one or more of the following criteria: results in death, is immediately life-threatening, requires in-patient hospitalization or prolongation of existing hospitalization, results in persistent or significant disability or incapacity, is a congenital abnormality or birth defect, or is an important medical event that may jeopardize the patient or may require medical treatment to prevent one of the outcomes listed above.\nAdverse events are coded using the most recent version of the Medical Dictionary for Regulatory Activities (MedDRA). AEs are presented for each treatment group by SOC and/or PT, covering number and percentage of subjects reporting at least one event and number of events where appropriate. […]\nSafety and tolerability are assessed in terms of AEs (including SAEs), deaths, laboratory data, vital signs, ECGs, and exposure. […]\nInterim analysis was conducted after all randomised patients underwent or were precluded from surgery. Superiority of pCR rate (α=0.1% [2-sided]) by central review was assessed. Surgical and safety outcomes were also assessed."}, "[5]": {"test_system": "resectable gastric and gastroesophageal junction cancer (GC/GEJC)", "assay": "Phase III study, interim analysis: pathological response (pCR, pnCR, downstaging) by pathology review after neoadjuvant therapy", "format": "in vivo, human", "from_the_text": "As used herein, the terms “combined pathological complete response/near-complete pathological response” or “pnCR” refer to the proportion of patients who only have single cells or rare small groups of cancer cells present in the resected specimens as determined by pathology review. […] The Ryan Scoring system is based on the ratio of residual cancer cells to the amount of fibrosis, and ranges from 1 (complete or near-complete response) to 3 (poor or not response to neoadjuvant therapy). As used herein, the terms “pathological complete response” or “pathological CR” or “pCR” refer to the proportion of patients who have no residual viable tumor in the resected specimens and as determined by pathology review. As used herein, the terms “event-free survival” or “EFS” refer the time from the date of randomization until the date of one of the following events, whichever occurs first: (1) first documented progression that precludes surgery or requires non-protocol therapy; (2) first evidence of documented recurrence of disease post-surgery in patients who had margin-negative surgery (R0); (3) first evidence of documented progression of disease post-surgery in patients with margin-positive surgery (R1/R2); or (4) death due to any cause. EFS is determined according to RECIST 1.1 per BICR assessment and/or locally by pathology testing.\nas §1\nPatients were stratified according to geographic region (Asia versus non-Asia), clinical lymph node status (positive versus negative), and PD-L1 expression status (TIP/TAP≥1% versus TIP/TAP<1%). Patients provided a tumor tissue sample at screening (newly acquired or archived sample <3 months old) to determine PD-L1 status using the Tumor and/or Immune Cell Positivity (TIP) scoring method (defined as proportion of tumor area occupied by tumor cells with membrane and immune cells with cytoplasmic/membrane PD-L1 staining at any intensity) by the Ventana SP263 PD-L1 immunohistochemistry (IHC) assay for stratification in which: TIP/TAP≥1% PD-L1 is considered as high, and TIP/TAP<1% PD-L1 is considered low.\nNeoadjuvant therapy begins following completion of the screening period/randomization, and patients undergo resection surgery about 4 to about 8 weeks after the last dose of neoadjuvant therapy (surgery >8 weeks after the last dose of neoadjuvant therapy may be permitted). Adjuvant therapy begins about 4 weeks to about 12 weeks post-surgery (based on the patient's recovery period). In this Phase III study, the administration of durvalumab and a FLOT chemotherapy prior to surgery, followed by further administration of durvalumab and a FLOT chemotherapy after surgery, was investigated to determine if this therapy regimen can improve activity and therefore long-term clinical outcomes for patients with resectable GC and/or resectable GEJC.\nEligible patients received 1500 mg durvalumab or placebo on Day 1 in combination with FLOT chemotherapy on Days 1 and 15 for 2 cycles Q4W as neoadjuvant therapy. […]"}, "[6]": {"conditions": "Central Review (BICR), n = 474 per arm"}, "[7]": {"conditions": "D + FLOT versus P + FLOT, p < 0.00001"}, "[8]": {"conditions": "Investigator Assessment, n = 474 per arm"}, "[9]": {"conditions": "central assessment, n = 474 per arm"}}, "data": [{"substance": "Durvalumab: antibody that selectively binds PD-L1 and blocks the binding of PD-L1 to the PD-1 and CD80 receptors", "values": [{"measurement": "effect on PD-L1-mediated suppression of human T-cell activation", "setting": "[1]", "value": "relieve PD-L1-mediated suppression of human T-cell activation in vitro"}, {"measurement": "tumor growth", "setting": "[2]", "value": "inhibits tumor growth"}]}, {"substance": "D + FLOT: durvalumab 1500 mg Day 1 Q4W plus FLOT (5-FU + leucovorin + oxaliplatin + docetaxel) Days 1 and 15, neoadjuvant-adjuvant, then durvalumab monotherapy", "values": [{"measurement": "Surgery rate", "setting": "[3]", "value": 87, "unit": "%"}, {"measurement": "Surgery performed, OR (95% CI)", "setting": "[3]; D + FLOT versus P + FLOT", "value": "1.23 (0.85-1.76)"}, {"measurement": "R0 resection, OR (95% CI)", "setting": "[3]; D + FLOT versus P + FLOT, in pts with surgery", "value": "1.00 (0.68-1.48)"}, {"measurement": "R0 resection rate", "setting": "[3]; in patients who underwent surgery", "value": 86, "unit": "%"}, {"measurement": "R0 resection, %", "setting": "[3]; in pts with surgery: D + FLOT n = 430, P + FLOT n = 422", "value": 85.8, "unit": "%"}, {"measurement": "Surgery performed, %", "setting": "[3]; n = 474 per arm", "value": 86.7, "unit": "%"}, {"measurement": "AE Grade 3/4, (%)", "setting": "[4]; safety analysis set", "value": "(68.6) %"}, {"measurement": "Grade 3/4 TRAE, (%)", "setting": "[4]; safety analysis set", "value": "(57.9) %"}, {"measurement": "TRAE (treatment-related AE), (%)", "setting": "[4]; safety analysis set", "value": "(95.2) %"}, {"measurement": "AE, (%)", "setting": "[4]; safety analysis set: D + FLOT n = 475, P + FLOT n = 469", "value": "(98.9) %"}, {"measurement": "Combined pCR/near-complete pathological response (pnCR) rate", "setting": "[5]", "value": 27, "unit": "%"}, {"measurement": "increase in major response versus Placebo+FLOT chemotherapy alone", "setting": "[5]", "value": 12.4, "unit": "%"}, {"measurement": "pCR Difference in response rate (%)", "setting": "[5]; Central Review (BICR), Durva + FLOT − Placebo + FLOT", "value": 12.0, "unit": "%"}, {"measurement": "pCR N Responses", "setting": "[5]; [6]", "value": 91}, {"measurement": "pCR Response rate %", "setting": "[5]; [6]", "value": 19.2, "unit": "%"}, {"measurement": "pCR Odds ratio", "setting": "[5]; Central Review (BICR), stratified Cochran-Mantel-Haenszel test, 2-sided p <0.00001", "value": 3.08}, {"measurement": "pCR, OR (95% CI)", "setting": "[5]; [7]", "value": "3.08 (2.03-4.67); p < 0.00001"}, {"measurement": "pCR/pnCR, OR (95% CI)", "setting": "[5]; [7]", "value": "2.19 (1.58-3.04); p < 0.00001"}, {"measurement": "Major pathological response, Difference in response rate (%)", "setting": "[5]; Durva + FLOT − Placebo + FLOT", "value": 12.4, "unit": "%"}, {"measurement": "pCR (BICR) by subgroups", "setting": "[5]; FIG. 2, odds ratio>1 favours durvalumab", "value": "consistent across evaluable subgroups"}, {"measurement": "major pathological response (complete or near-complete response BICR) by subgroups", "setting": "[5]; FIG. 3, odds ratio>1 favours durvalumab", "value": "consistent across evaluable subgroups"}, {"measurement": "pCR Difference in response rate (%)", "setting": "[5]; Investigator Assessment, Durva + FLOT − Placebo + FLOT", "value": 13.3, "unit": "%"}, {"measurement": "pCR N Responses", "setting": "[5]; [8]", "value": 103}, {"measurement": "pCR Response rate %", "setting": "[5]; [8]", "value": 21.7, "unit": "%"}, {"measurement": "pCR Odds ratio", "setting": "[5]; Investigator Assessment, stratified Cochran-Mantel-Haenszel test, 2-sided p <0.00001", "value": 3.03}, {"measurement": "Downstaging, pN0", "setting": "[5]; by central review", "value": 47, "unit": "%"}, {"measurement": "Downstaging, pT0", "setting": "[5]; by central review", "value": 21, "unit": "%"}, {"measurement": "Major pathological response (complete or near-complete) N Responses", "setting": "[5]; [9]", "value": 127}, {"measurement": "Major pathological response rate %", "setting": "[5]; [9]", "value": 26.8, "unit": "%"}, {"measurement": "pCR rate", "setting": "[5]; central review, interim analysis", "value": 19, "unit": "%"}, {"measurement": "pCR/pnCR, %", "setting": "[5]; n = 474 per arm", "value": 26.8, "unit": "%"}, {"measurement": "pCR, %", "setting": "[5]; n = 474 per arm, interim analysis", "value": 19.2, "unit": "%"}, {"measurement": "Major pathological response, Odds ratio", "setting": "[5]; stratified Cochran-Mantel-Haenszel test, 2-sided p <0.00001", "value": 2.19}, {"measurement": "increase in pCR rate from addition of durvalumab to FLOT", "setting": "[5]; versus Placebo", "value": 12, "unit": "%"}, {"measurement": "pCR odds ratio [OR]", "setting": "[5]; versus Placebo, p<0.00001", "value": 3.08}]}]}
